Data published in ChEMBL document CHEMBL5233262, “Anti-inflammatory activity of naturally occuring diarylheptanoids - A review” (Bioorg Med Chem, 2021).
In brackets after ≈: the same amount, converted by molar mass.

How the values were obtained:
[1] = test system: RAW264.7; experiment: Cytotoxicity against mouse RAW264.7 cells assessed as reduction in cell viability at 30 uM by MTT assay; type: toxicity, cell-based; details: raw264.7, 30 µM
[2] = test system: RAW264.7; experiment: Antiinflammatory activity in mouse RAW264.7 cells assessed as inhibition of LPS-induced NO production at 30 uM preincubated for 0.5 hrs followed by LPS stimulation and measured after 24 hrs by Griess reagent based analysis; type: functional; details: time 24.5 hrs
[3] = test system: RAW264.7; experiment: Antiinflammatory activity in mouse RAW264.7 cells assessed as inhibition of LPS-induced NO production preincubated for 1 hrs followed by LPS stimulation and measured after 24 hrs by Griess reagent based analysis; type: functional, cell-based
[4] = Antioxidant activity assessed as DPPH radical scavenging activity incubated for 30 mins by spectrophotometric analysis; type: functional
[5] = test system: Mus musculus; experiment: Antiinflammatory activity in ICR mouse model of TPA-induced ear edema assessed as inhibition of ear inflammation at 1 mg,TOP for 30 mins followed by TPA addition and measured after 6 hrs; type: functional; details: time 390 min, 6.5 h
[6] = test system: Zingiber officinale; experiment: Inhibition of prostaglandin biosynthesis in ginger; type: functional, organism-based
[7] = test system: HUVEC; experiment: Antiinflammatory activity in human HUVEC cells assessed as inhibition of IL-1beta induced ICAM-1 expression at 1 to 50 uM preincubated for 2 hrs followed by IL-1beta stimulation and measured after 8 hrs by ELISA; type: functional; details: dose 1-50 µM, time 10 hrs
[8] = test system: HUVEC; experiment: Antiinflammatory activity in human HUVEC cells assessed as inhibition of TNFalpha-induced ICAM-1 expression at 1 to 50 uM preincubated for 2 hrs followed by TNFalpha stimulation and measured after 8 hrs by ELISA; type: functional; details: dose 1-50 µM, time 10 hrs
[9] = test system: HUVEC; experiment: Antiinflammatory activity in human HUVEC cells assessed as inhibition of TNFalpha-induced VCAM-1 expression at 1 to 50 uM preincubated for 2 hrs followed by TNFalpha stimulation and measured after 8 hrs by ELISA; type: functional; details: dose 1-50 µM, time 10 hrs
[10] = test system: Mus musculus; experiment: Antiinflammatory activity in ICR mouse model of TPA-induced ear edema assessed as inhibition of ear inflammation at 20 uM,TOP for 30 mins followed by TPA addition and measured after 5 hrs; type: functional; details: 5.5 h, time 330 min
[11] = biological target: T1, Polyunsaturated fatty acid 5-lipoxygenase (Homo sapiens, UniProt P09917); experiment: Inhibition of 5-LOX in human neutrophils assessed as reduction in 5-HETE formation preincubated for 5 mins followed by arachidonic acid and A23187 addition and measured after 5 mins by RP-HPLC analysis; type: cell-based, Neutrophil
T1 sequence (P09917 whole entry): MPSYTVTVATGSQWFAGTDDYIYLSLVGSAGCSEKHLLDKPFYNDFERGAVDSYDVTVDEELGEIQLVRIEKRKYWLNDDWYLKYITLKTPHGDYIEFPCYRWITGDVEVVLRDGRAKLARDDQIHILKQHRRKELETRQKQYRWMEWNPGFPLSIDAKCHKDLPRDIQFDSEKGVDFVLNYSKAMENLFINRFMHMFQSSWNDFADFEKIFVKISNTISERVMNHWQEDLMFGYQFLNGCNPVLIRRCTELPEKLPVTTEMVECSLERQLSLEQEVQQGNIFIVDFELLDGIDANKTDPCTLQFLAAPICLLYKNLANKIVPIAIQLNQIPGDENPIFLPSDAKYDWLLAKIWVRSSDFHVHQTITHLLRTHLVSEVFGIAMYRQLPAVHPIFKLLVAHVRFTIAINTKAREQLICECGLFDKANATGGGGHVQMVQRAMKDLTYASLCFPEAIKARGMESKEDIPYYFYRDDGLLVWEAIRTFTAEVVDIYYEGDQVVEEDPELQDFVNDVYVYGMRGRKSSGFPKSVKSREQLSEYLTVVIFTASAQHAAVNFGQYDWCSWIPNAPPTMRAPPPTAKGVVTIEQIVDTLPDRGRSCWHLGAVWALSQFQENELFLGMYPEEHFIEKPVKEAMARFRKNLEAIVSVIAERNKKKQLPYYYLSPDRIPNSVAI

[12] = test system: HUVEC; experiment: Antiinflammatory activity in human HUVEC cells assessed as inhibition of IL-1beta induced VCAM-1 expression at 1 to 50 uM preincubated for 2 hrs followed by IL-1beta stimulation and measured after 8 hrs by ELISA; type: functional; details: dose 1-50 µM, time 10 hrs
[13] = Inhibition of COX in bovine seminal vesicle assessed as reduction in PGE2 production using arachidonic acid as substrate; type: tissue-based, Bos taurus
[14] = test system: J774.A1; experiment: Antiinflammatory activity in mouse J774.A1 cells assessed as inhibition of LPS-induced NO production incubated for 24 hrs by Griess reagent based analysis; type: functional, cell-based; details: J774.A1, 24 h
[15] = Antioxidant activity assessed as DPPH radical scavenging activity; type: functional
[16] = Antioxidant activity assessed as ABTS radical scavenging activity measured after 6 mins; type: functional
[17] = Antioxidant activity assessed as hydroxyl radical scavenging activity; type: functional
[18] = Antioxidant activity assessed as nitroblue tetrazolium superoxide radical scavenging activity incubated for 10 mins by spectrophotometric analysis; type: functional
[19] = Antiinflammatory activity in human HEK001 cells assessed as inhibition of LPS induced IL-1beta production at […] incubated for 24 hrs by ELISA; type: functional; details: dose 7.5 µM
[20] = Antiinflammatory activity in human HEK001 cells assessed as inhibition of LPS induced IL-8 production at […] incubated for 24 hrs by ELISA; type: functional; details: dose 7.5 µM
[21] = test system: RAW264.7; experiment: Antiinflammatory activity in mouse RAW264.7 cells assessed as inhibition of IFN-gamma and LPS-induced NO production incubated for 24 hrs by Griess assay; type: functional, cell-based; details: RAW264.7, 24 h
[22] = Antiinflammatory activity in human HEK001 cells assessed as inhibition of TNF-alpha induced CCL7 production at […] incubated for 24 hrs by ELISA; type: functional; details: dose 7.5 µM
[23] = Antiinflammatory activity in human HEK001 cells assessed as inhibition of TNF-alpha induced NO production incubated for 24 hrs at […] by Griess reagent based analysis; type: functional; details: dose 7.5 µM
[24] = test system: Mus musculus; experiment: Antiinflammatory activity in Dermatophagoides farina induced atopic dermatitis like skin lesions NC/Nga mouse model assessed as inhibition of IL-4 level at 0.1 %,ip twice a week for 4 weeks by ELISA; type: functional
[25] = test system: RAW264.7; experiment: Antiinflammatory activity against mouse RAW264.7 cells assessed as inhibition of IFN-gamma and LPS-induced COX2 production preincubated for 2 hrs followed by IFN-gamma and LPS stimulation and measured after 16 hrs by spectrophotometric analysis; type: functional, cell-based
[26] = test system: RAW264.7; experiment: Antiinflammatory activity in mouse RAW264.7 cells assessed as inhibition of LPS-induced NO production preincubated for 0.5 hrs followed by LPS stimulation and measured after 24 hrs by Griess reagent based analysis; type: functional, cell-based
[27] = test system: RAW264.7; experiment: Antiinflammatory activity in mouse RAW264.7 cells assessed as inhibition of LPS-induced NO production incubated for 24 hrs by Griess method; type: functional, cell-based; details: RAW264.7, 24 h
[28] = test system: Mus musculus; experiment: Antiinflammatory activity in Dermatophagoides farina induced atopic dermatitis like skin lesions NC/Nga mouse model assessed as inhibition of COX-2 expression level at 1 %,ip twice a week for 4 weeks by RT-PCR analysis; type: functional
[29] = Antiinflammatory activity in human Keratinocytes assessed as inhibition of LPS induced CCL17 production at […] incubated for 24 hrs by ELISA; type: functional; details: Keratinocyte, dose 7.5 µM
[30] = Antiinflammatory activity in human HEK001 cells assessed as inhibition of TNF-alpha induced PGE2 production at […] incubated for 24 hrs by ELISA; type: functional; details: dose 7.5 µM
[31] = Cytotoxicity against mouse RAW264.7 cells assessed as reduction in cell viability by MTT assay; type: toxicity, cell-based
[32] = Antiinflammatory activity in human Keratinocytes assessed as inhibition of LPS induced IL-1beta production at […] incubated for 24 hrs by ELISA; type: functional; details: Keratinocyte, dose 7.5 µM
[33] = biological target: Nuclear factor NF-kappa-B complex (Homo sapiens) (UniProt Q00653+P19838+Q04206); experiment: Inhibition of human NF-kappaB p65 binding to DNA in LPS-stimulated human keratinocytes at […] for 30 mins by ELISA; type: cell-based; details: Keratinocyte, dose 7.5 µM
Nuclear factor NF-kappa-B complex (Homo sapiens), sequence (P19838 whole entry, looked up): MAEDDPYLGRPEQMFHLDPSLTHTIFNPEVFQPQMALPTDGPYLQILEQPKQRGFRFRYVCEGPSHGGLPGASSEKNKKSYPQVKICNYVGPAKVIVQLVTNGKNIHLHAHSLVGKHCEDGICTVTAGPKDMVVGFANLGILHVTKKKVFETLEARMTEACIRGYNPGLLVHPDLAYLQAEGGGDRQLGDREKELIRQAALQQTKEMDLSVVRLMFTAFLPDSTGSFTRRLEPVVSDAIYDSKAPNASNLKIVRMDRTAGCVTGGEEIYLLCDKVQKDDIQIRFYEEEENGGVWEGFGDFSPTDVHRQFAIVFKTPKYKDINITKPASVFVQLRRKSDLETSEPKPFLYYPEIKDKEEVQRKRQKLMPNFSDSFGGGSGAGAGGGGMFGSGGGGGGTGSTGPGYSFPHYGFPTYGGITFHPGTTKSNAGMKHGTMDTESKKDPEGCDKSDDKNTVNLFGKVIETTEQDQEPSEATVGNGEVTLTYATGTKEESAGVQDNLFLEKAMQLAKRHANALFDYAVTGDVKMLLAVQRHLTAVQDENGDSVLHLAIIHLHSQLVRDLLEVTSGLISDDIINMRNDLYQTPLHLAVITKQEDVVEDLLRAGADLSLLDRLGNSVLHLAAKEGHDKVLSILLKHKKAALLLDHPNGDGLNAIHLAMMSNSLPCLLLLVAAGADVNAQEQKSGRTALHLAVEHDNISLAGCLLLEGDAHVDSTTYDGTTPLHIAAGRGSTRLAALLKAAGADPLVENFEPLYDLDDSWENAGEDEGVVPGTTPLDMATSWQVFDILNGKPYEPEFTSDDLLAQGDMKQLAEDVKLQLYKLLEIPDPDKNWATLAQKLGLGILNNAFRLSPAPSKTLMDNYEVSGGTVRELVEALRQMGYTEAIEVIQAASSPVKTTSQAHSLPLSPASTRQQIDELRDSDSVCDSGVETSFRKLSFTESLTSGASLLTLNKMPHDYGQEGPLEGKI
Nuclear factor NF-kappa-B complex (Homo sapiens), sequence (Q00653 whole entry, looked up): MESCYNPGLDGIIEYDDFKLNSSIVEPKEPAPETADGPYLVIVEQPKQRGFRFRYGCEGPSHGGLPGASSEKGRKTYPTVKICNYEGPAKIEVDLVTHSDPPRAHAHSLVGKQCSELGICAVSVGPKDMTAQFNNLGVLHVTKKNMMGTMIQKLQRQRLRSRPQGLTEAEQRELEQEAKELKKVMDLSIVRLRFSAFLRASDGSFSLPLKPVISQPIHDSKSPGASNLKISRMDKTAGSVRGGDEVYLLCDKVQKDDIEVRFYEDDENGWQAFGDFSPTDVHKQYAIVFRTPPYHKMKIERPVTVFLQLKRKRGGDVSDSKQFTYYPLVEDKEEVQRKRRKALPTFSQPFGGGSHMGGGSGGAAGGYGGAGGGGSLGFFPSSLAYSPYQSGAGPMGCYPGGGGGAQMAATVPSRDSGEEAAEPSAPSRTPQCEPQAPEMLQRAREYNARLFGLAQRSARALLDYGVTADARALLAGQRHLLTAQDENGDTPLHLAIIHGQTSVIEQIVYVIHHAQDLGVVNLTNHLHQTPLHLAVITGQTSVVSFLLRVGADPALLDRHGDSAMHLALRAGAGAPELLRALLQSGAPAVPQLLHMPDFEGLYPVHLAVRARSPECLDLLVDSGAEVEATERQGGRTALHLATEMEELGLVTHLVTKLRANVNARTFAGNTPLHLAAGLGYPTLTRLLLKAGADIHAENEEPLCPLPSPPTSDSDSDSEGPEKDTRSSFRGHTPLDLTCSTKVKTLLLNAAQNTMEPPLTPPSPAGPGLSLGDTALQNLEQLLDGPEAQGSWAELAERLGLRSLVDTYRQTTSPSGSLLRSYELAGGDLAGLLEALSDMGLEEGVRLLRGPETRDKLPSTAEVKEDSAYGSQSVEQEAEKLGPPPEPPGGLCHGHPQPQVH
Nuclear factor NF-kappa-B complex (Homo sapiens), sequence (Q04206 whole entry, looked up): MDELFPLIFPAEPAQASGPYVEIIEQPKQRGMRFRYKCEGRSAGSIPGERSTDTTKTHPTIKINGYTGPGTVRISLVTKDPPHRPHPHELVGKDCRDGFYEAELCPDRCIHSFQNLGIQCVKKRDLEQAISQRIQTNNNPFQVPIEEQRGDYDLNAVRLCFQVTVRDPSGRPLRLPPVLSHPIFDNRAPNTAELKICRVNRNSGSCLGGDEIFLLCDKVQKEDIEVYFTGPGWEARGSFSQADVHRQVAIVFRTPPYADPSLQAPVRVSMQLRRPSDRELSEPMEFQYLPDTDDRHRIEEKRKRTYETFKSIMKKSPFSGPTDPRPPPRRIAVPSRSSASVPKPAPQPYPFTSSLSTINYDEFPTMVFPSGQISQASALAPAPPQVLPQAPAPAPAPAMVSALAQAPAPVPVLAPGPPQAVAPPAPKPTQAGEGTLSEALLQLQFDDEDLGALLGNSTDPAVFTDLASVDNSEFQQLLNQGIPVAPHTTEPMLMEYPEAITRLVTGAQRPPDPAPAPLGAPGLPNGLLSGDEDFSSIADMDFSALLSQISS

[34] = test system: Mus musculus; experiment: Antiinflammatory activity in Dermatophagoides farina induced atopic dermatitis like skin lesions NC/Nga mouse model assessed as inhibition of iNOS expression level at 0.1 %,ip twice a week for 4 weeks by RT-PCR analysis; type: functional
[35] = test system: RAW264.7; experiment: Antiinflammatory activity in mouse RAW264.7 cells assessed as inhibition of LPS-induced NF-kappaB activation incubated for 24 hrs by SEAP microplate reader analysis; type: functional, cell-based; details: RAW264.7, 24 h
[36] = test system: Mus musculus; experiment: Antiinflammatory activity in Dermatophagoides farina induced atopic dermatitis like skin lesions NC/Nga mouse model assessed as inhibition of IL-5 level at 0.1 %,ip twice a week for 4 weeks by ELISA; type: functional
[37] = Antiinflammatory activity in human HEK001 cells assessed as inhibition of LPS induced CCL17 production at […] incubated for 24 hrs by ELISA; type: functional; details: dose 7.5 µM
[38] = test system: RAW264.7; experiment: Antiinflammatory activity in mouse RAW264.7 cells assessed as inhibition of LPS-induced NO production incubated for 24 hrs by Griess reagent based analysis; type: functional, cell-based; details: RAW264.7, 24 h
[39] = test system: Mus musculus; experiment: Antiinflammatory activity in Dermatophagoides farina induced atopic dermatitis like skin lesions NC/Nga mouse model assessed as inhibition of IL-4 level at 1 %,ip twice a week for 4 weeks by ELISA; type: functional
[40] = Antiinflammatory activity in human Keratinocytes assessed as inhibition of LPS induced ERK production at […] incubated for 24 hrs by ELISA; type: functional; details: Keratinocyte, dose 7.5 µM
[41] = Antiinflammatory activity in human HEK001 cells assessed as inhibition of TNF-alpha induced IL-8 production at […] incubated for 24 hrs by ELISA; type: functional; details: dose 7.5 µM
[42] = Antiinflammatory activity in mouse BMDM cells assessed as inhibition of LPS induced IL-1beta secretion at 5 uM; type: functional
[43] = test system: Mus musculus; experiment: Antiinflammatory activity in Dermatophagoides farina induced atopic dermatitis like skin lesions NC/Nga mouse model assessed as inhibition of IL-5 level at 1 %,ip twice a week for 4 weeks by ELISA; type: functional
[44] = test system: RAW264.7; experiment: Antiinflammatory activity in mouse RAW264.7 cells assessed as inhibition of LPS-induced TNFalpha production preincubated for 1 hr followed by LPS stimulation and measured after 18 hrs by immunoassay; type: functional, cell-based
[45] = test system: Mus musculus; experiment: Antiinflammatory activity in Dermatophagoides farina induced atopic dermatitis like skin lesions NC/Nga mouse model assessed as inhibition of iNOS expression level at 1 %,ip twice a week for 4 weeks by RT-PCR analysis; type: functional
[46] = test system: Mus musculus; experiment: Antiinflammatory activity in Dermatophagoides farina induced atopic dermatitis like skin lesions NC/Nga mouse model assessed as inhibition of COX-2 expression level at 0.1 %,ip twice a week for 4 weeks by RT-PCR analysis; type: functional
[47] = test system: RAW264.7; experiment: Antiinflammatory activity in mouse RAW264.7 cells assessed as inhibition of LPS-induced NO production incubated for 20 hrs by Griess method; type: functional, cell-based; details: RAW264.7, 20 h
[48] = Antioxidant activity assessed as nitroblue tetrazolium superoxide radical scavenging activity by spectrophotometric analysis; type: functional

## Oc1ccc(CCCC[C@@H](O)CCc2ccc(O)cc2)cc1
[1]
  Activity: 52%
[2]
  inhibition at 30 µM: 29%
[3]
  IC50: 27.8 µM
[4]
  IC50: 44.4 µM
[5]
  ID50: 0.66 mg

## COc1cc(/C=C/C(=O)CCCCc2ccccc2)ccc1O
[6]
  IC50: 2.3 µM
[7]
  inhibition (INH): 0%
[8]
  inhibition (INH): 0%
[9]
  inhibition (INH): 0%
[10]
  inhibition in vivo at 20 µM: 52%
[11]
  IC50: 4 µM
[12]
  inhibition (INH): 0%
[13]
  IC50: 23 µM

## O=C1O[C@H]([C@@H](O)CO)C(O)=C1O [ASCORBIC ACID]
[14]
  IC50: > 100 µM
[4]
  IC50: 24.8 µM
[15]
  IC50: 58 µg/mL (≈ 329 µM)
[16]
  IC50: 23.3 µM
[17]
  IC50: 47 µg/mL (≈ 267 µM)

## O=C(/C=C/CCc1ccc(O)c(O)c1)CCc1ccc(O)c(O)c1 [DEHYDROHIRSUTANONOL]
[18]
  IC50: 16.8 µM
[19]
  inhibition at […]: 39%
[20]
  inhibition at […]: 40%
[21]
  IC50: 27.2 µg/mL (≈ 82.8 µM)
[22]
  inhibition at […]: 43%
[23]
  inhibition at […]: 37%
[24]
  inhibition (INH): 51%
[25]
  IC50: 25 µg/mL (≈ 76.1 µM)
[26]
  IC50: 5 µM
[27]
  IC50: 14.1 µM
[28]
  inhibition (INH): 62%
[29]
  inhibition at […]: 49%
[30]
  inhibition at […]: 46%
[31]
  IC50: 39 µM
[32]
  inhibition at […]: 39%
[33]
  inhibition: 29.5%
[34]
  inhibition (INH): 61%
[35]
  IC50: > 100 µM
[36]
  inhibition (INH): 37%
[37]
  inhibition at […]: 51%
[38]
  IC50: > 100 µM
[39]
  inhibition (INH): 60%
[40]
  inhibition at […]: 37%
[41]
  inhibition at […]: 33%
[42]
  inhibition at 5 µM: 73.4%
[3]
  IC50: 5.8 µM
[4]
  IC50: 13.4 µM
[43]
  inhibition (INH): 74%
[44]
  IC50: > 100 µM
[45]
  inhibition (INH): 73%
[46]
  inhibition (INH): 57%
[47]
  IC50: 0.8 µM
[48]
  IC50: 17.6 µM
